# Data taken from patent US20230331690A1, “THC DERIVATIVES, ORAL DOSAGE FORMS COMPRISING SAME, USES THEREOF FOR TREATING DISEASES AND DISORDERS AND SYNTHESIS THEREOF” (BAR-ILAN UNIVERSITY, priority 2020, published 2023).
# Where “and” joins values, the source holds several entries; their conditions need not be identical. Equal entries are not always repeated. Where two headings read alike, the source gives them in different places.
# What was measured:
# mice = assay: Hot plate assay, withdrawal reflex latency (WRL); format: in vivo; details: for Hot plate Time: per animal
# [1] = Pharmacokinetics, blood samples (Example 17); details: mouse, blood, ip, Component in the blood, label = analyte
# [2] = Pharmacokinetics, liver samples (Example 17); format: in vivo, mice; details: mouse, liver; for concentration at 24 h: ip; for concentration at 5 h: po
# Description: The pharmacokinetics of 9-CD3-(8-D2)-THC compared to natural THC was evaluated using both intraperitoneal i.p. injection and an oral gavage administration for each material. The mice were divided into four groups containing 6 mice (24 mice total). For each group of mice, a blood sample was withdrawn at baseline (t=0), and half-hour intervals (t=0.5, 2 and 5 h) after administration of the drug. Three mice, half of each group, were euthanized with CO2 after 5 h and their organs (brain and liver) were collected. From the second half of each group, another blood sample was withdrawn 24 h after administration, and then these animals were euthanized and the brain and liver were collected for analysis.
# [3] = Persistence over time, blood samples (Example 18); format: in vivo, mice; details: label = analyte; for Average results, blood samples: 4 mg/kg administration
# [4] = Persistence over time, brain samples postmortem (Example 18); format: in vivo, mice
# [5] = Persistence over time, liver samples postmortem (Example 18); format: in vivo, mice; details: for concentration at 6 h / concentration at 24 h: mouse, liver, oral, read-out: Average results for 3 mice (Table 13, liver); for concentration at 6 h: died at 6 h
# [6] = Body temperature by rectal thermometer (hypothermia)
smiles,measurement,setting,value
"CCCCCc1cc(O)c2c(c1)OC(C)(C)[C@@H]1CCC(C)=C[C@@H]21 [THC, Δ-9-tetrahydrocannabinol]",Hot plate Avg. 6 mice,"mice; 2 mg/Kg oral, t = 0.5 h",7.38 s
same,Hot plate Time,"mice; 2 mg/Kg oral, t = 0.5 h",5.7 s and 11.5 s and 8.9 s and 9.2 s and 3.2 s and 5.8 s
same,Hot plate Avg. 6 mice,"mice; 2 mg/Kg oral, t = 3 h",9.77 s
same,Hot plate Time,"mice; 2 mg/Kg oral, t = 3 h",9.5 s and 8.5 s and 18.0 s and 10.4 s and 5.3 s and 6.9 s
same,Hot plate Avg. 6 mice,"mice; 2 mg/Kg oral, t = 6 h",9.77 s
same,Hot plate Time,"mice; 2 mg/Kg oral, t = 6 h",13.5 s and 6.3 s and 12.5 s and 8.7 s and 6.6 s and 11.0 s
same,Hot plate Avg. 3 mice,"mice; 2 mg/Kg oral, t = 24 h",6.53 s
same,Hot plate Time,"mice; 2 mg/Kg oral, t = 24 h",7.8 s and 7.4 s and 4.4 s
same,decrease in the WRL compared to baseline,"mice; 2 mg/kg, 0.5 h",1%
same,change in average WRL compared to baseline,"mice; 2 mg/kg, 3 h",+31%
same,change in average WRL compared to baseline,"mice; 2 mg/kg, 6 h",+31%
same,Hot plate Avg. 6 mice,"mice; 4 mg/Kg oral, t = 0.5 h",12.48 s
same,Hot plate Time,"mice; 4 mg/Kg oral, t = 0.5 h",11.3 sec. (2×) and 19.8 sec. and 6.3 sec. and 14.0 sec. and 12.2 sec.
same,Hot plate Avg. 6 mice,"mice; 4 mg/Kg oral, t = 3 h",11.00 s
same,Hot plate Time,"mice; 4 mg/Kg oral, t = 3 h",17.3 s and 8.0 s and 9.3 s and 6.9 s and 13.9 s and 10.6 s
same,Hot plate Avg. 6 mice,"mice; 4 mg/Kg oral, t = 6 h",8.92 s
same,Hot plate Time,"mice; 4 mg/Kg oral, t = 6 h",12.1 sec. and 2.4 sec. and 3.0 sec. and 14.0 sec. (2×) and 8.0 sec.
same,Hot plate Avg. 3 mice,"mice; 4 mg/Kg oral, t = 24 h",10.43 s
same,Hot plate Time,"mice; 4 mg/Kg oral, t = 24 h",13.7 s and 12.8 s and 4.8 s
same,increase in the WRL compared to baseline,"mice; 4 mg/kg, 0.5 h",23%
same,change in average WRL compared to baseline,"mice; 4 mg/kg, 3 h",+8%
same,change in average WRL compared to baseline,"mice; 4 mg/kg, 6 h",−12%
same,Hot plate Avg. 6 mice,"mice; 8 mg/Kg oral, t = 0.5 h",13.22 s
same,Hot plate Time,"mice; 8 mg/Kg oral, t = 0.5 h, cut-off 30 s",15.2 s and 11.1 s and 14.2 s and 6.7 s and 19.6 s and 12.5 s
same,Hot plate Avg. 6 mice,"mice; 8 mg/Kg oral, t = 3 h",12.45 s
same,Hot plate Time,"mice; 8 mg/Kg oral, t = 3 h, cut-off 30 s",21.6 s and 9.0 s and 9.8 s and 9.5 s and 12.5 s and 12.3 s
same,Hot plate Avg. 6 mice,"mice; 8 mg/Kg oral, t = 6 h",12.03 s
same,Hot plate Time,"mice; 8 mg/Kg oral, t = 6 h",13.2 s and 9.2 s and 6.8 s and 16.7 s and 17.0 s and 9.3 s
same,Hot plate Avg. 3 mice,"mice; 8 mg/Kg oral, t = 24 h",10.27 s
same,Hot plate Time,"mice; 8 mg/Kg oral, t = 24 h, cut-off 30 s",8.1 s and 15.7 s and 7.0 s
same,average increase in WRL compared to baseline (t=0),"mice; 8 mg/kg, 0.5 h",67.3%
same,change in average WRL compared to t=0 at baseline,"mice; 8 mg/kg, 3 h",+57.5%
same,change in average WRL compared to baseline,"mice; 8 mg/kg, 6 h",+52%
same,concentration at 0.5 h,"[1]; Average, 0.5 h after i.p. injection of THC or THC-d5, n=6 (THC-d5 n=5)",63.4 ng/mL
same,concentration at 0.5 h,"[1]; mouse 1, 0.5 h after i.p. injection of THC or THC-d5",76.8 ng/mL
same,concentration at 0.5 h,"[1]; mouse 2, 0.5 h after i.p. injection of THC or THC-d5",81.9 ng/mL
same,concentration at 0.5 h,"[1]; mouse 3, 0.5 h after i.p. injection of THC or THC-d5",49.5 ng/mL
same,concentration at 0.5 h,"[1]; mouse 4, 0.5 h after i.p. injection of THC or THC-d5",64.4 ng/mL
same,concentration at 0.5 h,"[1]; mouse 5, 0.5 h after i.p. injection of THC or THC-d5",53.8 ng/mL
same,concentration at 0.5 h,"[1]; mouse 6, 0.5 h after i.p. injection of THC or THC-d5",53.9 ng/mL
same,concentration at 24 h,"[2]; 24 h after i.p. administration, n=3, read-out: average liver concentration",7.62 ng/g
same,concentration at 24 h,"[2]; 24 h after i.p. injection of THC or THC-d5, label = analyte, n=3, read-out: Component in the liver, Average",7.62 ng/mL
same,concentration at 24 h,"[2]; 24 h after i.p. injection of THC or THC-d5, label = analyte, read-out: Component in the liver, mouse 1",5.55 ng/mL
same,concentration at 24 h,"[2]; 24 h after i.p. injection of THC or THC-d5, label = analyte, read-out: Component in the liver, mouse 2",8.46 ng/mL
same,concentration at 24 h,"[2]; 24 h after i.p. injection of THC or THC-d5, label = analyte, read-out: Component in the liver, mouse 3",8.86 ng/mL
same,concentration at 5 h,"[2]; 5 h after oral gavage administration of THC or THC-d5, label = analyte, n=3, read-out: Component in the liver, Average",3.77 ng/mL
same,concentration at 5 h,"[2]; 5 h after oral gavage administration of THC or THC-d5, label = analyte, read-out: Component in the liver, mouse 1",1.41 ng/mL
same,concentration at 5 h,"[2]; 5 h after oral gavage administration of THC or THC-d5, label = analyte, read-out: Component in the liver, mouse 2",4.94 ng/mL
same,concentration at 5 h,"[2]; 5 h after oral gavage administration of THC or THC-d5, label = analyte, read-out: Component in the liver, mouse 3",4.97 ng/mL
same,concentration at 5 h,"[2]; 5 h after oral gavage administration, n=3, read-out: average liver concentration",3.77 ng/g
same,"Average results, blood samples",[3]; Time 3 h,2.78 (4/6) ng/mL
same,"Average results, blood samples",[3]; Time 6 h,2.44 (5/5) ng/mL
same,"Average results, blood samples",[3]; Time 24 h (3 mice),0.25 (2/2) ng/mL
same,concentration at 0.5 h,"[3]; mouse, blood, oral, 4 mg/kg administration of THC or THC-d5, Time 0.5 h",10.5 ng/mL
same,concentration at 0.5 h,"[3]; mouse, blood, oral, 8 mg/kg administration of THC or THC-d5, Time 0.5 h",14.3 ng/mL
same,concentration at 3 h,"[3]; mouse, blood, oral, 8 mg/kg administration, Time 3 h",6.53 ng/mL
same,concentration at 6 h,"[3]; mouse, blood, oral, 8 mg/kg administration, Time 6 h",4.14 ng/mL
same,concentration at 12 h,"[3]; mouse, blood, oral, 8 mg/kg administration, Time 12 h (3 mice)",0.81 ng/mL
same,concentration at 24 h,"[3]; mouse, blood, oral, 8 mg/kg administration, Time 24 h (3 mice)",0.26 ng/mL
same,presence in the brain,"[4]; 24 h after administration, highest concentration of 8 mg/kg",absent
same,concentration at 24 h,"[4]; mouse, brain, oral, 4 mg/kg administered, died at 24 h, number in brackets = mice with a value, read-out: Average results for 3 mice - brain samples",14.1 ng/g
same,concentration at 6 h,"[4]; mouse, brain, oral, 8 mg/kg administered, died at 6 h, number in brackets = mice with a value, read-out: Average results for 3 mice - brain samples",16.9 ng/g
same,"Average results for 3 mice (Table 13, liver)","[5]; 2 mg/kg administered, died at 24 h, number in brackets = mice with a value",0.74 (2/3) ng/g
same,concentration at 6 h,[5]; 2 mg/kg administered,9.18 ng/g
same,concentration at 6 h,[5]; 4 mg/kg administered,11.4 ng/g
same,concentration at 24 h,"[5]; 4 mg/kg administered, died at 24 h, number in brackets = mice with a value",0.87 ng/g
same,concentration at 6 h,[5]; 8 mg/kg administered,11.1 ng/g
same,concentration at 24 h,"[5]; 8 mg/kg administered, died at 24 h, number in brackets = mice with a value",3.52 ng/g
same,time of strongest effect on body temperature after drug administration,[6]; high concentration of 8 mg/kg oral,0.5 h
same,hypothermia effect (body temperature),[6]; medium concentration of 4 mg/kg oral,very clear hypothermia effect
same,"Body temperature, Avg. change compared to t = 0, at t = 0.5 h","[6]; mice, avg. of 6 mice, 8 mg/kg (groups C+D), t = 0.5 h after administration",−2.1 °C
